From publication PMC11091889, “Silver Organometallics that are Highly Potent Thioredoxin and Glutathione Reductase Inhibitors: Exploring the Correlations of Solution Chemistry with the Strong Antibacterial Effects” (ACS Infectious Diseases, 2024)
Where two headings read alike, the source gives them in different places.

Assays:
[1] = system: E. faecium (DSM 20477, ATCC 19434); assay: Broth microdilution antibacterial assay; type: cell-based, Enterococcus faecium
Protocol: (§1) The antibacterial effect of the silver NHC complexes and selected ligands was evaluated in two Gram-positive [Enterococcus faecium, methicillin resistant S. aureus, (MRSA)] and in four Gram-negative (Acinetobacter baumannii, Escherichia coli, Klebsiella pneumoniae, and Pseudomonas aeruginosa) pathogenic bacterial strains using broth microdilution assays. The resulting minimal inhibitory concentrations (MICs, Table 2) and EC50 (Table S6) were determined by a curve fitting procedure. Silver nitrate (AgNO3), SSD, and various antibiotics were used as references.
(§2) The following strains of ESKAPE panel were utilized and maintained at 37 °C in MHB (21 g/L Müller Hinton broth, pH 7.4) or TSY (30 g/L trypticase soy broth, 3 g/L yeast extract, pH 7.0–7.2) media: A. baumannii (DSM 30007, ATCC 19606), E. coli (DSM1116, ATCC 9637), K. pneumoniae (DSM 11678, ATCC33495), P. aeruginosa PA7 (DSM 24068) in MHB; E. faecium (DSM 20477, ATCC 19434), and S. aureus MRSA (DSM 11822, ICB 25701) in TSY. MIC values were determined following a standardized protocol in broth microdilution assays. The compounds and reference substances (AgNO3 and SSD) were serially diluted from 64 to 1 μg/mL. Starting inocula of 2–8 × 10^5 CFU/mL in MHB or TSY media at 37 °C were used, and serial dilutions were carried out in 96-well microtiter plates in duplicate. After incubation of the plates for 22 h at 37 °C, the absorbance at 600 nm was measured using The Spark multimode microplate reader (Tecan Trading AG). The MIC values for the tested compounds were determined in three independent experiments and presented in μM with standard errors and also in μg/mL. Amikacin (P. aeruginosa), linezolid (S. aureus), and ciprofloxacin (all other strains) served as positive controls. The MIC and EC50 values were determined by curve fitting with Sigma Plot. To determine the effect of the culture medium on the activity of silver compounds, the assay was performed using MHB, TSY, or DMEM (Gibco). To observe the effect of individual components of TSY medium, antibacterial tests were performed using MHB with addition of tryptone (17 g/L) or yeast extract (3 g/L, both were purchased from Sigma).

[2] = system: K. pneumoniae (DSM 11678, ATCC33495); assay: Broth microdilution antibacterial assay; type: cell-based, Klebsiella pneumoniae
Protocol: as §1, §2

[3] = Conductometry: molar conductivity of silver complexes in DMSO; type: physicochemical; conditions: 1.0 mM in DMSO, calculated as monocarbene (NHC)AgX
Protocol: Since both the neutral monocarbene and the ionic biscarbene form of the complexes may exist in various proportions in the solution, conductometry studies were performed to reveal the dominant structure. The molar conductivity of 1.0 mM solutions of each complex in DMSO was determined after different periods up to 24 h using AgNO3 as 1:1 electrolyte reference (see Table 1). According to the literature, the expected range of molar conductivity for 1:1 electrolytes in DMSO is 35–90 S cm^2 mol^–1.[45],[46]
Conductivity measurements were performed using an Apera Instruments EC9500 conductivity meter. Solutions (as indicated, otherwise 1.0 mM) of all compounds were prepared using freshly distilled DMSO with a specific electrical conductivity of ≤3 × 10^–8 S cm^–1. The conductivities were measured at 25 ± 2 °C immediately after complete dissolution and after 24 h.

[4] = system: P. aeruginosa PA7 (DSM 24068); assay: microbe, parasite or virus in culture; type: cell-based, Pseudomonas aeruginosa; conditions: for MIC: DSM24068, 22 h
Protocol: as §1, §2

[5] = system: A. baumannii (DSM 30007, ATCC 19606); assay: Broth microdilution antibacterial assay; type: cell-based, Acinetobacter baumannii
Protocol: as §1, §2

[6] = system: S. aureus MRSA (DSM 11822, ICB 25701); assay: microbe, parasite or virus in culture; type: cell-based, methicillin resistant S. aureus
Protocol: as §1
The importance of the culture medium used in antibacterial assays has been pointed out for antibiotics and in particular for silver.[53]−[55] In our recent studies, tryptic soy yeast (TSY) broth has been used for growing Gram-positive bacteria. Two components thereof, tryptone and yeast extract, have been reported to affect the antibacterial activity of silver nitrate.[55] Moreover, such an effect was also observed for other media containing at least one of those components.[11],[53] […] Silver nitrate served as a reference, and three different growth media were studied, namely, Müller-Hinton Broth (MHB, commonly used for Gram-negative bacteria), TSY broth (commonly used for Gram-positive bacteria), and DMEM supplemented with 10% FCS (commonly used for growth of mammalian and human cells).
as §2

[7] = system: E. coli (DSM1116, ATCC 9637); assay: microbe, parasite or virus in culture; type: cell-based, Escherichia coli
Protocol: as §1, §2

[8] = mean ± standard error, n = 3, TSY, 22 h
[9] = mean ± standard error, n = 3, MHB, 22 h
[10] = mean ± standard error, n = 3, MHB
[11] = Enterococcus faecium, 22 h, read-out: MIC E. faecium (value in brackets)
[12] = Klebsiella pneumoniae, 22 h, read-out: MIC K. pneumoniae
[13] = Klebsiella pneumoniae, 22 h, read-out: MIC K. pneumoniae (value in brackets)
[14] = Pseudomonas aeruginosa, read-out: MIC P. aeruginosa (value in brackets), n = 3, MHB, 22 h
[15] = Acinetobacter baumannii, 22 h, read-out: MIC A. baumannii
[16] = Acinetobacter baumannii, 22 h, read-out: MIC A. baumannii (value in brackets)
[17] = Staphylococcus aureus, 22 h, read-out: MIC MRSA (value in brackets)
[18] = Escherichia coli, n = 3, MHB, 22 h, read-out: MIC E. coli (value in brackets)
[19] = Enterococcus faecium, 22 h, read-out: MIC E. faecium, mean ± standard error, n = 3, TSY, 22 h
[20] = read-out: EC50 E. faecium, mean ± standard error, n = 3, TSY
[21] = read-out: EC50 K. pneumoniae; mean ± standard error, n = 3, MHB
[22] = read-out: EC50 P. aeruginosa, mean ± standard error, n = 3, MHB
[23] = read-out: EC50 A. baumannii; mean ± standard error, n = 3, MHB
[24] = read-out: EC50 MRSA; mean ± standard error, n = 3, TSY
[25] = mean ± standard error, n = 3, MHB, 22 h, read-out: MIC E. coli

SMILES | MIC E. faecium [1, 8] [µM] | MIC K. pneumoniae [2, 9] [µM] | MIC P. aeruginosa [4, 9] [µM] | MIC A. baumannii [5, 9] [µM] | MIC MRSA [6, 8] [µM] | EC50 [7, 10] [µM] | MIC [1, 11] [µg/mL] | MIC [2, 12] [µM] | MIC [2, 13] [µg/mL] | MIC [4, 14] [µg/mL] | MIC [5, 15] [µM] | MIC [5, 16] [µg/mL] | MIC [6, 17] [µg/mL] | MIC [7, 18] [µg/mL] | MIC [1, 19] [µM] | EC50 [1, 20] [µM] | EC50 [2, 21] [µM] | EC50 [4, 22] [µM] | EC50 [5, 23] [µM] | EC50 [6, 24] [µM] | also measured
Cn1[c]([Ag][Cl])[n+](Cc2ccccn2)c2ccccc21 [1a] | 175 ± 0.0 | 18.2 ± 3.6 | 10.9 ± 0.0 | 14.6 ± 3.6 | 175 ± 0.0 | 53.3 ± 8.6 | – | – | – | – | – | – | – | – | – | – | – | – | – | – | EC50 ([1]; mean ± standard error, n = 3, TSY, read-out: EC50 E. faecium): 145 ± 2.3 µM; MIC E. faecium (value in brackets) ([1]; n = 3, TSY, 22 h): 64 µg/mL; EC50 ([2]; mean ± standard error, n = 3, MHB; read-out: EC50 K. pneumoniae): 8.5 ± 1.2 µM; MIC K. pneumoniae (value in brackets) ([2]; n = 3, MHB, 22 h): 7 µg/mL; Molar conductivity ΛM ([3]; 1 h after dissolution): 2.88 S cm^2 mol^–^1; Molar conductivity ΛM ([3]; 24 h after dissolution): 3.05 S cm^2 mol^–^1; EC50 ([4]; mean ± standard error, n = 3, MHB, read-out: EC50 P. aeruginosa): 5.7 ± 0.8 µM; MIC P. aeruginosa (value in brackets) ([4]; n = 3, MHB, 22 h): 4 µg/mL; EC50 ([5]; mean ± standard error, n = 3, MHB; read-out: EC50 A. baumannii): 1.7 ± 0.4 µM; MIC A. baumannii (value in brackets) ([5]; n = 3, MHB, 22 h): 5 µg/mL; EC50 ([6]; mean ± standard error, n = 3, TSY; read-out: EC50 MRSA): 146 ± 2.8 µM; MIC MRSA (value in brackets) ([6]; n = 3, TSY, 22 h): 64 µg/mL; MIC E. coli [7, 9]: 116 ± 29 µM; MIC E. coli (value in brackets) ([7]; n = 3, MHB, 22 h): 43 µg/mL
CC(C)[n+]1cn(Cc2ccccn2)c2ccccc21.[Cl-] [L3a, 1-Isopropyl-3-(pyridin-2-ylmethyl)-benzimidazolium Chloride] | – | – | – | – | – | – | > 128 | > 250 | > 128 | > 128 | > 250 | > 128 | > 128 | > 128 | – | – | – | – | – | – | MIC ([1]; Enterococcus faecium, 22 h, read-out: MIC E. faecium): > 250 µM; EC50 ([1]; Enterococcus faecium, read-out: EC50 E. faecium, mean ± standard error, n = 3, TSY): > 250 µM; EC50 ([2]; Klebsiella pneumoniae, read-out: EC50 K. pneumoniae): > 250 µM; MIC ([4]; Pseudomonas aeruginosa, read-out: MIC P. aeruginosa, mean ± standard error, n = 3, MHB, 22 h): > 250 µM; EC50 ([4]; Pseudomonas aeruginosa, DSM24068, read-out: EC50 P. aeruginosa, mean ± standard error, n = 3, MHB): > 250 µM; EC50 ([5]; Acinetobacter baumannii, read-out: EC50 A. baumannii): > 250 µM; MIC ([6]; Staphylococcus aureus, 22 h, read-out: MIC MRSA): > 250 µM; EC50 ([6]; Staphylococcus aureus, read-out: EC50 MRSA): > 250 µM; EC50 ([7]; Escherichia coli, mean ± standard error, n = 3, MHB): > 250 µM; MIC ([7]; Escherichia coli, mean ± standard error, n = 3, MHB, 22 h, read-out: MIC E. coli): > 250 µM
CC(C)[n+]1cn(Cc2ccccn2)c2ccccc21.[Br-] [L3b, 1-Isopropyl-3-(pyridin-2-ylmethyl)-benzimidazolium Bromide] | – | > 250 | > 250 | > 250 | > 250 | > 250 | – | – | > 128 | > 128 | – | ≥ 128 | > 128 | > 128 | ≥ 250 | ≥ 250 | > 250 | > 250 | > 250 | > 250 | MIC [7, 25]: > 250 µM
CC(C)[n+]1cn(Cc2ccccn2)c2ccccc21.[I-] [L3c, 1-Isopropyl-3-(pyridin-2-ylmethyl)-benzimidazolium Iodide] | > 250 | > 250 | ≥ 250 | > 250 | > 250 | > 250 | > 128 | – | > 128 | > 128 | – | > 128 | > 128 | > 128 | – | > 250 | > 250 | ≥ 250 | > 250 | > 250 | MIC [7, 25]: > 250 µM
NCC[C@H](O)C(=O)N[C@@H]1C[C@H](N)[C@@H](O[C@H]2O[C@H](CN)[C@@H](O)[C@H](O)[C@H]2O)[C@H](O)[C@H]1O[C@H]1O[C@H](CO)[C@@H](O)[C@H](N)[C@H]1O [amikacin, reference compound] | – | – | – | – | – | – | – | – | – | – | – | – | – | – | – | – | – | – | – | – | MIC ([4]; Pseudomonas aeruginosa, read-out: MIC P. aeruginosa): 4.4 ± 1.3 µM; MIC ([4]; Pseudomonas aeruginosa, read-out: MIC P. aeruginosa (value in brackets)): 2.6 µg/mL
O=C(O)c1cn(C2CC2)c2cc(N3CCNCC3)c(F)cc2c1=O [ciprofloxacin, reference compound] | – | – | – | – | – | – | – | 2.5 ± 0.9 | 0.8 | – | 0.63 ± 0.22 | 0.2 | – | – | 15.1 ± 1 | – | – | – | – | – | MIC ([1]; Enterococcus faecium, 22 h, read-out: MIC E. faecium (value in brackets), n = 3, TSY, 22 h): 5 µg/mL; MIC ([7]; Escherichia coli, 22 h, read-out: MIC E. coli): 0.5 µM; MIC ([7]; Escherichia coli, 22 h, read-out: MIC E. coli (value in brackets)): 0.16 µg/mL; MIC ([7]; Escherichia coli, read-out: MIC E. coli DSM 1116 in MHB): 0.47 µM; MIC ([7]; Escherichia coli, read-out: MIC E. coli DSM 1116 in MHB + tryptone): 0.47 µM; MIC ([7]; Escherichia coli, read-out: MIC E. coli DSM 1116 in MHB + yeast extract): 0.47 µM
